The test deals with M. tuberculosis H37Rv growth inhibition. The test can be described thus: Mycobacterium tuberculosis H37Rv growth inhibition, cell based, confirmatory dose response (AID 1949).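 Note: bacteria grown 7 days with compound before Alamar blue readout.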

Experimental findings from PubChem BioAssay AID1949 (Southern Research Institute, 2009) are described below.

Values after ≈ are worked out from the molar mass of the structure shown. Results filed as inconclusive are left out. Active and inactive are the calls of the source. The rule behind the calls is not given here.

By IC50 is commonly meant the concentration that inhibits the measured activity by half. Turning to `O=C(CCN1C(=O)C2C3C=CC(C4CC34)C2C1=O)Oc1cccc2cccnc12` (configuration not stated), the concentration for half-maximal inhibition (IC50) was 1.46 µg/mL (≈ 3.76 µM).

For `CN1CCN(c2ccc(NC(=O)c3ccc(Cl)c(Cl)c3)cc2)CC1`, the IC50 was > 50 µg/mL (inactive).

For `CCOC(=O)c1cc(-c2ccccc2)sc1NC(=S)NC1CCN(Cc2ccccc2)CC1`, the IC50 was 0.77 µg/mL (≈ 1.61 µM).

Regarding `O=C(Nc1cccnc1)c1ccc2c(c1)C1C3CCC(C3)C1C(c1ccccc1)N2` (configuration not stated), the IC50 was 37.5 µg/mL (≈ 94.8 µM).

For `CC1CN(c2ccc([N+](=O)[O-])cc2)CCN1C(=O)c1cccc(Br)c1` (configuration not stated), the IC50 was 2.83 µg/mL (≈ 7 µM).

In the case of `CCCCC(=O)NC(=S)NNC(=O)c1ccc(C)c(Br)c1`, the IC50 was 2.79 µg/mL (≈ 7.49 µM).

Regarding `O=c1c(Cl)c(Cl)cnn1Cc1ccccc1Cl`, the IC50 was 9.65 µg/mL (≈ 33.3 µM).

With `S=C(NCc1ccc(Cl)cc1)NCc1ccc(-n2cccn2)cc1`, the IC50 was 5.4 µg/mL (≈ 15.1 µM).

With `COc1ccc(Cl)cc1C(=O)Nc1ccc(N2CCN(Cc3ccccc3F)CC2)cc1`, the IC50 was 3.36 µg/mL (≈ 7.4 µM).

In the case of `Cc1cc2ncn(CCCCOc3ccccc3)c2cc1C`, the IC50 was 4.6 µg/mL (≈ 15.6 µM).

As for `CC(C(=O)OCc1ccccc1)n1cnc2scc(-c3ccc(Br)cc3)c2c1=O` (configuration not stated), the IC50 is 1.51 µg/mL (≈ 3.22 µM).

Consider `Cn1c(=O)[nH]c2nnc(-c3ccccn3)nc2c1=O`, for which the IC50 is > 50 µg/mL (inactive).

Regarding `C#CCOc1c(Cl)cc(/C=C/[N+](=O)[O-])cc1OC`, the IC50 was 29.4 µg/mL (≈ 110 µM).

In the case of `Cc1ccc(NC(=O)C23CC4CCC(CC(C4)C2)C3)cc1`, the IC50 is 0.19 µg/mL (≈ 0.67 µM).

As to `CCCOc1ccc(C2Oc3ccc(Br)cc3C=C2[N+](=O)[O-])cc1OC` (configuration not stated), the half-inhibitory concentration (IC50) was 1.48 µg/mL (≈ 3.52 µM).

On to `O=C(CCCC(=O)N1CCC(Cc2ccccc2)CC1)N1CCC(Cc2ccccc2)CC1`, for which the IC50 is 12.1 µg/mL (≈ 27.1 µM).

With `O=C(Nc1ccc(Oc2ccccc2)cc1)Nc1cccc([N+](=O)[O-])c1`, the IC50 is 1.09 µg/mL (≈ 3.12 µM).

Take `CNCCCOc1ccc(Cl)cc1C(C)(C)C`: the IC50 is 7.95 µg/mL (≈ 31.1 µM).

Turning to `Cc1ccc(C(=O)Nc2ccc([N+](=O)[O-])cc2C)cc1I`, the IC50 was under 0.1 µg/mL.

For `O=C(COc1ccc2c(-c3ccccc3)cc(=O)oc2c1)OC1CCCCC1`, the IC50 was under 0.1 µg/mL.

Regarding `N#Cc1c(SCCN2CCCC2)nc2c(c1C(F)(F)F)CC(c1ccccc1)CC2` (configuration not stated), the IC50 is 47.4 µg/mL (≈ 110 µM).

On to `Brc1c(OCCCn2ccnc2)ccc2ccccc12`, for which the half-inhibitory concentration (IC50) is 1.56 µg/mL (≈ 4.71 µM).

Turning to `O=C(CSc1nnc(-c2ccccc2Cl)o1)Nc1ccccn1`, the IC50 was > 50 µg/mL (inactive).

With `OC(CN1CCCCCC1)CN1c2ccccc2Sc2ccccc21` (configuration not stated), the IC50 was 9.1 µg/mL (≈ 25.7 µM).

Take `CC(C)(C)c1cc(Cl)c(O)c(NC(=S)NC(=O)c2cccc3ccccc23)c1`: the IC50 is under 0.1 µg/mL.

Take `COc1ccc(CNC(=O)c2sc3nc4c(c(C(F)(F)F)c3c2N)CC(C)CC4)cc1OC` (configuration not stated): the IC50 is > 50 µg/mL (inactive).

For `O=C(CS(=O)(=O)c1ccc2ccccc2c1)Nc1ccccc1Cl`, the IC50 is 4.48 µg/mL (≈ 12.5 µM).

With `Cc1cc2ncn(CCOc3ccc(Cl)cc3)c2cc1C`, the IC50 was 1.12 µg/mL (≈ 3.72 µM).

Turning to `CCc1c(C)sc(NC(=S)NC2CCN(Cc3ccccc3)CC2)c1C(=O)OC`, the IC50 was 1.69 µg/mL (≈ 3.92 µM).

For `CCC(C)c1ccc(O)c(NC(=S)NC(=O)c2cncc(Br)c2)c1` (configuration not stated), the 50% inhibitory concentration (IC50) is under 0.1 µg/mL.

For `COc1cc(CNCCO)cc(Cl)c1OCc1ccc(Cl)cc1Cl`, the IC50 is 5.72 µg/mL (≈ 14.6 µM).

As to `COc1ccc(C23CC4CC(CC(C4)C2)C3)cc1C(=O)NCCN(C)C`, the IC50 was 10.8 µg/mL (≈ 30.3 µM).

With `O=C(CC(O)(C(F)(F)F)C(F)(F)F)Nc1ccc(Cl)cc1Cl`, the IC50 was 5.7 µg/mL (≈ 15.4 µM).

As to `O=C(NCCCN1CCN(c2ccc(Cl)cc2)CC1)Nc1ccc(F)cc1`, the IC50 was 9.16 µg/mL (≈ 23.4 µM).

For `COC(=O)C(C)Oc1ccc2c(=O)c(Oc3ccccc3Br)coc2c1` (configuration not stated), the IC50 is 2.96 µg/mL (≈ 7.06 µM).

For `CCc1ccccc1-n1c(=O)oc2ccc(Cl)cc2c1=O`, the 50% inhibitory concentration (IC50) was 1.37 µg/mL (≈ 4.54 µM).

With `CCC(=O)Oc1cccc2ccc(/C=C/c3ccc(C(=O)OC)cc3)nc12`, the IC50 was 3.21 µg/mL (≈ 8.88 µM).

As to `Cc1cc(OC(=O)C2CC2)c2c3c(c(=O)oc2c1)CCCC3`, the 50% inhibitory concentration (IC50) is 1.44 µg/mL (≈ 4.83 µM).

For `O=C(NCc1ccc(Cl)c(Cl)c1)C(Cl)Cl`, the IC50 was 10.6 µg/mL (≈ 37.1 µM).

As to `CC(C)(C)c1ccc(C(=O)Nc2ccc(S(=O)(=O)Nc3nccs3)cc2)cc1Br`, the IC50 is 1.19 µg/mL (≈ 2.41 µM).

On to `O=C(CSc1nnc(-c2ccncc2)o1)Nc1ccc(Cl)cn1`, for which the IC50 is 5.59 µg/mL (≈ 16.1 µM).

In the case of `CCN1C(=O)c2cccc3c([N+](=O)[O-])ccc(c23)C1=O`, the IC50 was > 50 µg/mL (inactive).

With `O=C(CCNc1ccc(-c2ccccc2)cc1)c1ccco1`, the IC50 was under 0.1 µg/mL.

As for `Cc1ccc(C(=O)NCCC2=CCCCC2)cc1I`, the concentration for half-maximal inhibition (IC50) is 2.92 µg/mL (≈ 7.91 µM).

Take `N#C/C(=C/c1ccc([N+](=O)[O-])o1)c1ccc(C#N)cc1`: the concentration for half-maximal inhibition (IC50) is 2.96 µg/mL (≈ 11.2 µM).

As to `COc1ccc(NC(=O)c2ccccc2Oc2ccccc2)c(OC)c1`, the IC50 was under 0.1 µg/mL.

For `CCOC(=O)COc1ccc2c(=O)c(-c3ccccc3Cl)c(C)oc2c1C`, the IC50 is 0.98 µg/mL (≈ 2.53 µM).

Consider `COC(=O)c1sc2nc(-c3ccccc3)nc(N3CCN(C)CC3)c2c1C`, for which the IC50 was > 50 µg/mL (inactive).

Consider `Cc1ccc(Cc2ccc(C(=O)Nc3ccc(C)c(C)c3)o2)cc1`, for which the IC50 is 0.18 µg/mL (≈ 0.564 µM).

For the compound `O=S(Cc1ccccc1)c1nc2ccccc2s1` (configuration not stated), the IC50 was 3.15 µg/mL (≈ 11.5 µM).

Regarding `COc1ccc(OC)c(NC(=O)Nc2ccc(Cl)c(C(F)(F)F)c2)c1`, the IC50 was 1.72 µg/mL (≈ 4.59 µM).

Take `O=C(Oc1ccc(Cl)c2cccnc12)c1cccs1`: the IC50 was 0.37 µg/mL (≈ 1.28 µM).

`O=C(N=Nc1c(O)[nH]c2ccccc12)c1ccc(Cl)cc1`: the IC50 was 46.7 µg/mL (≈ 156 µM).

`CCC(C)c1ccccc1OCC(=O)Nc1cccc(-c2nnc(-c3ccco3)o2)c1` (configuration not stated): the IC50 was 8.07 µg/mL (≈ 19.3 µM).

As for `O=C(CC12CC3CC(CC(C3)C1)C2)NC(=S)Nc1ccc2c(c1)OCCO2`, the IC50 was > 50 µg/mL (inactive).

For `Cc1ccc(OC(F)F)c(NC(=O)Nc2ccc([N+](=O)[O-])cc2)c1`, the IC50 is 22.4 µg/mL (≈ 66.5 µM).

Consider `O=C(Nc1ccccc1OC(F)F)c1ccc([N+](=O)[O-])o1`, for which the IC50 was 6.29 µg/mL (≈ 21.1 µM).

`O=C(CCN1C(=O)c2ccccc2C1=O)Oc1cccc2cccnc12`: the IC50 was 2.78 µg/mL (≈ 8.03 µM).

With `Cn1c2c(c(=O)n(C)c1=O)C(C(F)(F)F)(C(F)(F)F)N=C(c1cccc([N+](=O)[O-])c1)N2`, the IC50 is > 50 µg/mL (inactive).

For `O=C(NC(Nc1cccc([N+](=O)[O-])c1)C(Cl)(Cl)Cl)c1cccc(I)c1` (configuration not stated), the IC50 is 11.7 µg/mL (≈ 22.8 µM).

For the compound `Cc1cccc(-c2nnc(SCC(=O)NCCc3ccccc3)o2)c1`, the IC50 is 0.25 µg/mL (≈ 0.707 µM).

Regarding `Nc1ccccc1NCCOc1ccccc1`, the IC50 is 1.01 µg/mL (≈ 4.42 µM).

As to `CN(C)CCC(=O)c1ccc(Br)cc1`, the IC50 was 0.61 µg/mL (≈ 2.38 µM).

In the case of `O=C(Nc1nc(SCc2ccc(F)cc2)ns1)c1cc(F)c(F)cc1Cl`, the IC50 is 2.35 µg/mL (≈ 5.65 µM).

`O=[N+]([O-])c1ccccc1S(=O)(=O)Nc1ccc(S(=O)(=O)Nc2nccs2)cc1`: the 50% inhibitory concentration (IC50) is 3.8 µg/mL (≈ 8.63 µM).

Turning to `CCC(=O)Oc1cccc2ccc(/C=C/c3ccc4c(c3)OCO4)nc12`, the IC50 is 0.17 µg/mL (≈ 0.489 µM).

As to `Cc1ccc(N2CCN(CCNC(=S)Nc3cccc(C)c3C)CC2)c(Cl)c1`, the IC50 is 8.3 µg/mL (≈ 19.9 µM).

Consider `Cc1cc(Cl)ccc1OCC(O)CNC(C)c1ccccc1` (configuration not stated), for which the IC50 is 8.02 µg/mL (≈ 25.1 µM).

Consider `Cc1c(Cl)ccc(OCCCN2CCCC(C)C2)c1C` (configuration not stated), for which the IC50 is 3.16 µg/mL (≈ 10.7 µM).

On to `CSc1ncnc2c1ncn2CC(=O)Nc1ccc(C)c(C)c1`, for which the IC50 was under 0.1 µg/mL.

Turning to `Cc1cccc(C(C)(C)C)c1OCCn1ccnc1`, the IC50 was 8.23 µg/mL (≈ 31.9 µM).

With `Cc1ccc(C)c(-c2nn(-c3cc(N4CCN(C)CC4)ccc3[N+](=O)[O-])c(=O)c3ccccc23)c1`, the IC50 was 1.76 µg/mL (≈ 3.75 µM).
